Measurements: patent publication US20260027179A1, “ANTI-SYNUCLEINOPATHY PEPTIDE AND METHODS TO TREAT NEURODEGENERATIVE DISEASES” (University of British Columbia, priority 2021, published 2026)

Tests used:
Iba-1 = test: PFF mouse model of spreading synucleinopathy, microglial Iba-1 immunostaining; format: in vivo; conditions: PFF-injected M83 mice, 40 mg/kg i.p. over 20 days, at three months, vs Tat-βsyn group
Protocol: M83 mice were injected intracerebrally (i.e.) into the right dorsal striatum with either 12.5 μg of α-synuclein pre-formed fibrils (PFFs) or PBS. Starting at 3 days prior to the PFF injection, mice were treated daily for 12 days with either Tat-βsyn or Tat-βsyn-degron peptide (40 mg/kg; i.p.) and once every other day for the subsequent 8 days (20 days in total, FIG. 5a). At the end of three months, coronal brain sections of the M83 mice were prepared and stained with antibodies against serine 129-phosphorylated α-synuclein (pS129syn), a marker of pathogenic synuclein aggregates, and Iba-1, a calcium-binding protein specifically expressed in macrophage and microglia as a marker of neuroinflammation.
PFFs were generated in-house based on the Volpicelli-Daley et al protocol. […] PFFs were characterized using a negative staining protocol and analyzed using an electron microscope. […] PFFs were visualized using a transmission electron microscope (FEI Tecnai 12 Bio Twin 120 kV TEM) coupled to a AMT XR80C CCD camera, and analyzed with ImageJ 1.5 and Matlab 2017b software. […]
Brains from M83 mice that received i.e. and i.p. injections were processed for immunohistochemistry. […] Coronal sections were analyzed using Fiji-ImageJ 1.5 software to detect the total area labeled with the peroxidase immunoreaction product. The results were analyzed using GraphPad Prism software.

C57BL/6 mice = test: MPTP mouse model, rotarod test; format: in vivo; conditions: peptide 6 μmol/kg i.p. twice a day for 12 days, vs MPTP group
Protocol: C57BL/6 mice (20-25 g) received intraperitoneal (i.p.) injection of 30 mg/kg parkinsonian toxin MPTP hydrochloride once a day for 5 days to induce dopaminergic neuron death in the substantia nigra, while the control mice received equal volumes of saline injection. 6 μmol/kg Tat-βsyn-degron peptide or control Tat-βsyn peptide was i.p. injected into the MPTP-treated mice every 12 hrs from the first day of MPTP injection until 7 days after the last injection of MPTP. All groups of mice then underwent a rotarod test before they were sacrificed.
The rotarod test was performed as previously described (Heldermon, C. D. et al., PloS one 2, e772, doi:10.1371/journal.pone.0000772 (2007)), with modifications. Briefly, 6 days after the last MPTP injection, all mice received 4 rounds of training on the rotarod (Stoelting Co.). In the first two rounds of training, the rotarod was maintained at constant speed of 20 rpm for 3 min. In the second two rounds of training, the rotarod reversed rotation direction every 3 turns at the constant speed of 20 rpm for 3 min. […] Mice were tested 10 times at 20 min intervals, and the time that they remained on the rotarod during each test was recorded. […] The motor performance of the mouse was expressed as the latency to fall off the rotarod.

YGRKKRRQRRRRTKSGVYLVGRRRG (The sequence is synthesized (YGRKKRRQRRRRTKSGVYLVGRRRG)) [Tat-βsyn-degron]
Iba-1 staining in pons (Iba-1): significantly reduced the level of Iba-1 staining
Iba-1 staining in substantia nigra pars compacta (Iba-1): no observable effect
MPTP-induced motor deficits (latency to fall off the rotarod) (C57BL/6 mice): significantly reduced
